In patent US12415770B2, “Modulators of liver receptor homologue 1 (LRH-1) and uses” (Emory University, priority 2017, dated 2025):
pEC50: −log10 of the molar value.

Tests used:
LRH-1 = molecular target: T1, LRH-1 (Homo sapiens, UniProt O00482); experiment: Luciferase reporter assay (SHP-luc) in HeLa cells transfected with full-length LRH-1; format: cell-based; conditions: for EC50 (μM) / pEC50: HeLa cells, SHP-luc reporter, 24 hours, 0.03-30 μM; for Relative Efficacy: fold increase over baseline (DMSO-treated cells) relative to the fold increase induced by RJW100
T1 construct: The transfected plasmids included full-length LRH-1 in a pCI vector; expressed in transfected cells; host or cells: HeLa
Protocol: EC50 and Relative Activity values were calculated from luciferase reporter assays.

LRH-1 LBD = molecular target: T2, LRH-1 LBD (Homo sapiens, UniProt O00482); experiment: Thermofluor (DSF) assay, purified LRH-1 LBD-His protein; format: binding; conditions: 50 μM compound; relative to DLPC-bound LRH-1; read-out: ΔTm (mean +/− SEM) (° C.)
T2 construct: LRH-1 LBD (residues 299-541) in the pMSC7 vector was expressed in BL21 (DE3) pLysS E. coli; made in house; host or cells: E. coli BL21 (DE3) pLysS
Protocol: Thermofluor assays—Purified LRH-1 LBD-His protein (0.2 mg/ml) was incubated overnight with 50 μM of each compound at 4° C. The final DMSO concentration in the reactions was 1%. SYPRO orange dye (Invitrogen) was then added at a 1:1000 dilution. Reactions were heated at a rate of 0.5° C. per minute, using a StepOne Plus Real Time PCR System (ThermoFisher). […] Data were analyzed by first subtracting baseline fluorescence (ligands+SYPRO with no protein) and then fitting the curves using the Bolzman equation (GraphPad Prism, v6) to determine the Tm. […]

T2 sequence (O00482 299-541): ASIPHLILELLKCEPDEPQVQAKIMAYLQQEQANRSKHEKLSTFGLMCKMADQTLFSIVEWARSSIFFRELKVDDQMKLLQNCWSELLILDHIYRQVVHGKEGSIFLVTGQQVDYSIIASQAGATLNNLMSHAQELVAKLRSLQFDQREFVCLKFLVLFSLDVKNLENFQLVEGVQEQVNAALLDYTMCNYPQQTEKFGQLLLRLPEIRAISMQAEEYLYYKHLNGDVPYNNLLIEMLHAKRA
T1 sequence (O00482 whole entry): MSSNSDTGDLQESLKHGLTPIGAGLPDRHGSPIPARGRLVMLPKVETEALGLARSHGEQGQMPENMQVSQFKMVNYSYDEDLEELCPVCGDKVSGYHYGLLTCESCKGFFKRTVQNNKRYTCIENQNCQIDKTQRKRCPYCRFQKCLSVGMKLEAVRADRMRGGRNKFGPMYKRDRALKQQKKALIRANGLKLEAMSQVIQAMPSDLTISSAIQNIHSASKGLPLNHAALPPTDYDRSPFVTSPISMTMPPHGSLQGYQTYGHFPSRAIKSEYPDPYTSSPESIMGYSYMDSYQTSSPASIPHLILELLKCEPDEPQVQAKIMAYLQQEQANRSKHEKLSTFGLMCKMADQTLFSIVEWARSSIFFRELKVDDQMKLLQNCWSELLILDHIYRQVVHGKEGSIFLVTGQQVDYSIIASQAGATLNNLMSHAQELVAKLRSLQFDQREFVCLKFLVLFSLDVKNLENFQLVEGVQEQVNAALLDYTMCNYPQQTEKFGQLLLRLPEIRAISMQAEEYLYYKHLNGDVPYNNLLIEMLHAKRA

| Compound | EC50 (μM) (LRH-1) | Relative Efficacy (LRH-1) | ΔTm at 50 µM (LRH-1 LBD) [°C] | pEC50 (LRH-1) |
| --- | --- | --- | --- | --- |
| C=C(c1ccccc1)C12CC[C@@H](O)C1CC(CCCCCC)=C2c1cccc(O)c1 (mixture of isomers) [Compound 15f, (Exo)-5-hexyl-4-(3-hydroxyphenyl)-3a-(1-phenylvinyl)-1,2,3,3a,6,6a-hexahydropentalen-1-ol] | cnc | 0.85 | 1.4 |  |
| C=C(c1ccccc1)[C@@]12CC[C@@H](O)C1CC(CCCCCC)=C2c1cccc(N)c1 (mixture of isomers) [Compound 15g, (Exo)-4-(3-aminophenyl)-5-hexyl-3a-(1-phenylvinyl)-1,2,3,3a,6,6a-hexahydropentalen-1-ol] | cnc | 0.70 | < 1 |  |
| C=C(c1ccccc1)[C@@]12CC[C@@H](O)C1CC(CCCCCC)=C2c1cc(O)ccc1F (mixture of isomers) [Compound 16f, (Exo)-4-(2-fluoro-5-hydroxyphenyl)-5-hexyl-3a-(1-phenylvinyl)-1,2,3,3a,6,6a-hexahydropentalen-1-ol] |  | 0.9 | < 1 | < 4.52 |
| C=C(c1ccccc1)[C@@]12CC[C@@H](O)C1CC(CCCCCC)=C2c1cc(N)ccc1F (mixture of isomers) [Compound 16g, (Exo)-4-(5-amino-2-fluorophenyl)-5-hexyl-3a-(1-phenylvinyl)-1,2,3,3a,6,6a-hexahydropentalen-1-ol] |  | 3.8 | < 1 | 4.62 |
| C=C(c1ccccc1)[C@@]12CC[C@@H](O)C1CC(CCCCCC)=C2c1cc(O)ccc1C (mixture of isomers) [Compound 17f, (Exo)-5-hexyl-4-(5-hydroxy-2-methylphenyl)-3a-(1-phenylvinyl)-1,2,3,3a,6,6a-hexahydropentalen-1-ol] |  |  | -1.9 |  |
| C=C(c1ccccc1)[C@@]12CC[C@@H](O)C1CC(CCCCCC)=C2c1cc(N)ccc1C (mixture of isomers) [Compound 17g, (Exo)-4-(5-amino-2-methylphenyl)-5-hexyl-3a-(1-phenylvinyl)-1,2,3,3a,6,6a-hexahydropentalen-1-ol] |  | 2.7 | < 1 | < 4.52 |
| C=C(c1ccccc1)[C@@]12CC[C@@H](O)C1CC(CCCCCC)=C2c1cc(O)cc(F)c1 (mixture of isomers) [Compound 18f, (Exo)-4-(3-fluoro-5-hydroxyphenyl)-5-hexyl-3a-(1-phenylvinyl)-1,2,3,3a,6,6a-hexahydropentalen-1-ol] |  | 2.8 | < 1 | < 4.52 |
| C=C(c1ccccc1)[C@@]12CC[C@@H](O)C1CC(CCCCCC)=C2c1cc(N)cc(F)c1 (mixture of isomers) [Compound 18g, (Exo)-4-(3-amino-5-fluorophenyl)-5-hexyl-3a-(1-phenylvinyl)-1,2,3,3a,6,6a-hexahydropentalen-1-ol] | cnc | 0.99 | 1.5 |  |
| C=C(c1ccccc1F)[C@@]12CC[C@@H](O)C1CC(CCCCCC)=C2c1ccccc1 (mixture of isomers) [Compound 20, (Exo)-3a-(1-(2-fluorophenyl)vinyl)-5-hexyl-4-phenyl-1,2,3,3a,6,6a-hexahydropentalen-1-ol] |  |  | 1.4 |  |
| C=C(c1ccccc1C)[C@@]12CC[C@@H](O)C1CC(CCCCCC)=C2c1ccccc1 (mixture of isomers) [Compound 21, (Exo)-5-hexyl-4-phenyl-3a-(1-(o-tolyl)vinyl)-1,2,3,3a,6,6a-hexahydropentalen-1-ol] |  |  | 1.3 |  |
| C=C(c1ccccc1OC)[C@@]12CC[C@@H](O)C1CC(CCCCCC)=C2c1ccccc1 (mixture of isomers) [Compound 22, (Exo)-5-hexyl-3a-(1-(2-methoxyphenyl)vinyl)-4-phenyl-1,2,3,3a,6,6a-hexahydropentalen-1-ol] | cnc | 0.42 | < 1 |  |
| C=C(c1ccc(Br)cc1)[C@@]12CC[C@@H](O)C1CC(CCCCCC)=C2c1ccccc1 (mixture of isomers) [Compound 23a, (Exo)-3a-(1-(4-bromophenyl)vinyl)-5-hexyl-4-phenyl-1,2,3,3a,6,6a-hexahydropentalen-1-ol] | cnc | 0.06 |  |  |
| C=C(c1ccc(O)cc1)[C@@]12CC[C@@H](O)C1CC(CCCCCC)=C2c1ccccc1 (mixture of isomers) [Compound 23b, (Exo)-5-hexyl-3a-(1-(4-hydroxyphenyl)vinyl)-4-phenyl-1,2,3,3a,6,6a-hexahydropentalen-1-ol] |  | 0.86 | < 1 | 5.30 |
| C=C(c1ccccc1)[C@@]12CC[C@@H](O)[C@@H]1CC(CCCCO)=C2c1ccccc1 (relative stereo) [Compound 5e, Exo-5-(4-hydroxybutyl)-4-phenyl-3a-(1-phenylvinyl)-1,2,3,3a,6,6a-hexahydropentalen-1-ol] |  | 0.83 | 3.1 | 5.85 |
| C=C(c1ccccc1)[C@@]12CC[C@@H](O)[C@@H]1CC(CCCCCC(=O)O)=C2c1ccccc1 (relative stereo) [Compound 7f, 6-(6-exo-hydroxy-3-phenyl-3a-(1-phenylvinyl)-1,3a,4,5,6,6a-hexahydropentalen-2-yl)hexanoic acid] |  | 2.22 | 5.5 | 5.05 |
| C=C(c1ccccc1)[C@@]12CC[C@@H](O)[C@@H]1CC(CCCCCCCO)=C2c1ccccc1 (relative stereo) [Compound 8e, Exo-5-(7-hydroxyheptyl)-4-phenyl-3a-(1-phenylvinyl)-1,2,3,3a,6,6a-hexahydropentalen-1-ol] |  | 1.26 | 3.7 | 6.70 |
| C=C(c1ccccc1)C12CCC(O)C1CC(CCCCCCCC(=O)N1CCC(COP(=O)([O-])OCC[N+](C)(C)C)C1)=C2c1ccccc1 [Compound 13b, ((3R)-1-(8-(6-(exo)-hydroxy-3-phenyl-3a-(1-phenylvinyl)-1,3a,4,5,6,6a-hexahydropentalen-2-yl)octanoyl)pyrrolidin-3-yl)methyl (2-(trimethylammonio)ethyl)phosphate] |  | 0.96 |  | 4.92 |
| C=C(c1ccccc1)[C@@]12CC[C@@H](O)[C@@H]1CC(CCCCCCCC(=O)OC[C@H](COP(=O)([O-])OCC[N+](C)(C)C)OC(=O)CC)=C2c1ccccc1 [Compound 14d, (2R)-3-((8-(6-(exo)-hydroxy-3-phenyl-3a-(1-phenylvinyl)-1,3a,4,5,6,6a-hexahydropentalen-2-yl)octanoyl)oxy)-2-(propionyloxy) propyl(2-(trimethylammonio)ethyl) phosphate] |  | 3.35 |  | 4.77 |
| C=C(c1ccccc1)[C@@]12CC[C@H](OS(N)(=O)=O)C1CC(CCCCCC)=C2c1ccccc1 (stereo partly drawn) [Compound 28-endo, (Endo or Exo)-5-hexyl-4-phenyl-3a-(1-phenylvinyl)-1,2,3,3a,6,6a-hexahydropentalen-1-yl sulfamate] |  |  | 8 |  |
| C=C(c1ccccc1)[C@@]12CC[C@@H](OS(N)(=O)=O)C1CC(CCCCCC)=C2c1ccccc1 (stereo partly drawn) [Compound 28-exo, (Endo or Exo)-5-hexyl-4-phenyl-3a-(1-phenylvinyl)-1,2,3,3a,6,6a-hexahydropentalen-1-yl sulfamate] |  |  | 5.1 |  |
| C=C(c1ccccc1)[C@@]12CC[C@H](NC(C)=O)C1CC(CCCCCC)=C2c1ccccc1 (stereo partly drawn) [Compound 35-endo, N-((endo or exo)-5-hexyl-4-phenyl-3a-(1-phenylvinyl)-1,2,3,3a,6,6a-hexahydropentalen-1-yl) acetamide] |  |  | 0.4 |  |
| C=C(c1ccccc1)[C@@]12CC[C@H](NC(N)=O)C1CC(CCCCCC)=C2c1ccccc1 (stereo partly drawn) [Compound 36-endo, 1-((endo or exo)-5-hexyl-4-phenyl-3a-(1-phenylvinyl)-1,2,3,3a, 6,6a-hexahydropentalen-1-yl) urea] |  |  | 1.1 |  |
| C=C(c1ccccc1)[C@@]12CC[C@@H](NC(N)=O)C1CC(CCCCCC)=C2c1ccccc1 (stereo partly drawn) [Compound 36-exo, 1-((endo or exo)-5-hexyl-4-phenyl-3a-(1-phenylvinyl)-1,2,3,3a, 6,6a-hexahydropentalen-1-yl) urea] |  |  | -1.4 |  |
| C=C(c1ccccc1)[C@@]12CC[C@@H](OC(=O)NS(=O)(=O)O)C1CC(CCCCCC)=C2c1ccccc1 (stereo partly drawn) [Compound 40-exo, ((((endo or exo)-5-hexyl-4-phenyl-3a-(1-phenylvinyl)-1,2,3,3a, 6,6a-hexahydropentalen-1-yl)oxy)carbonyl)sulfamic acid] |  | 0 |  | < 4.52 |
| C=C(c1ccccc1)C12CCC(CN)C1CC(CCCCCC)=C2c1ccccc1 (stereo not drawn) [Compound 48-endo, (endo or exo) (5-hexyl-4-phenyl-3a-(1-phenylvinyl)-1,2,3,3a,6,6a-hexahydropentalen-1-10 yl)methanamine] |  |  | 0 |  |
| C=C(c1ccccc1)C12CC(O)C(CN)C1CC(CCCCCC)=C2c1ccccc1 (stereo not drawn) [Compound 51, 3-(aminomethyl)-5-hexyl-6-phenyl-6a-(1-phenylvinyl)-1,2,3,3a,4,6a-hexahydropentalen-2-ol] | cnc | 0.65 |  |  |
| C=C(c1ccccc1)C12CC(O)C(O)C1CC(CCCCCC)=C2c1ccccc1 (stereo not drawn) [Compound 52, 5-hexyl-4-phenyl-3a-(1-phenylvinyl)-1,2,3,3a,6,6a-hexahydropentalene-1,2-diol] |  | −0.25 |  | 8.00 |
